From ChEMBL document CHEMBL4229562, “Introduction of a Methyl Group Curbs Metabolism of Pyrido[3,4- d]pyrimidine Monopolar Spindle 1 (MPS1) Inhibitors and Enables the Discovery of the Phase 1 Clinical Candidate N2-(2-Ethoxy-4-(4-methyl-4 H-1,2,4-triazol-3-yl)phenyl)-6-methyl- N8-neopentylpyrido[3,4- d]pyrimidine-2,8-diamine …” (J Med Chem, 2018)
≈ marks a conversion by molar mass, not a printed value.

Legend:
[1] = Lipophilicity, log P of the compound; format: physicochemical; settings: octanol/water
[2] = target: T1, Dual specificity protein kinase TTK (Homo sapiens, UniProt P33981)
T1 sequence (P33981 whole entry): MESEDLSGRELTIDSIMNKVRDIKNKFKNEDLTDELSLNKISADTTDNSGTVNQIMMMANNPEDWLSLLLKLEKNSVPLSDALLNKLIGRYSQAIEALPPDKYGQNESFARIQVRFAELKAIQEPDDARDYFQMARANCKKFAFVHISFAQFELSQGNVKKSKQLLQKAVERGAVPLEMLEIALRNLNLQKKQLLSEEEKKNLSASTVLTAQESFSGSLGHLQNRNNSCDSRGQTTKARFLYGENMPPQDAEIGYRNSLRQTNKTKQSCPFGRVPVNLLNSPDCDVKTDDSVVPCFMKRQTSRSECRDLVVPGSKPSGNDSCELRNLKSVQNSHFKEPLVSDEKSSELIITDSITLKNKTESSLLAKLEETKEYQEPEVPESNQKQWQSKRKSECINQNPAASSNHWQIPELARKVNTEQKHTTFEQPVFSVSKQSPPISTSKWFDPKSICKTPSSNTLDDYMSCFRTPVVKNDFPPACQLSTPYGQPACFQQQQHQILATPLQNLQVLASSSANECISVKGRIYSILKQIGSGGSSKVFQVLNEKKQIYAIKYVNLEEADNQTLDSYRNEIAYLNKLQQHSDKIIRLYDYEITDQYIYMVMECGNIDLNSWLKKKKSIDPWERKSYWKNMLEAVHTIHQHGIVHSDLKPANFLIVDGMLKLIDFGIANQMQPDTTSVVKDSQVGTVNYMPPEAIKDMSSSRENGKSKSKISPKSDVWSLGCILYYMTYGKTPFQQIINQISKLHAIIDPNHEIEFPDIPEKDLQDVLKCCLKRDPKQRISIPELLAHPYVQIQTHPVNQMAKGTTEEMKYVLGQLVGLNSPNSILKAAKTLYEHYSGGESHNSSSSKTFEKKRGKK
Description: Inhibition of full length human N-terminal 6xHis-tagged MPS1 expressed in baculovirus expression system using 5FAM-H236 peptide as substrate after 60 to 90 mins by caliper assay

[3] = target: T1, Dual specificity protein kinase TTK; remark: listed apart in the source
Description: Inhibition of MPS1 autophosphorylation at Thr33/Ser37 in human HCT116 cells after 2 hrs by MSD assay

CDK2/Cyclin A2 = CDK2/Cyclin A2 (Homo sapiens, UniProt P24941)
[4] = Intrinsic clearance in human liver microsomes assessed per mg protein at 1 uM preincubated for 10 mins followed NADPH/UDP-glucuronic acid addition and measured after 30 mins by LC-MS/MS analysis; format: ADME, microsome; settings: 0.5 h
[5] = Intrinsic clearance in CD1 mouse liver microsomes assessed per mg protein at 1 uM preincubated for 10 mins followed NADPH/UDP-glucuronic acid addition and measured after 30 mins by LC-MS/MS analysis; format: ADME, microsome; settings: 0.5 h
[6] = Solubility of the compound in PBS buffer at pH 7.4 by HPLC analysis; format: physicochemical

**Q.** For `CCOc1cc(-c2nncn2C)ccc1Nc1ncc2cc(C)nc(N3CCC3(C)C)c2n1`, which logP [1] is on record?
**A.** The logP was 3.58.

**Q.** What about the IC50 [2] of the same molecule?
**A.** The IC50 was 400 nM.

**Q.** And the Ki [2]?
**A.** The Ki was 4 nM.

**Q.** And the IC50 [3]?
**A.** Its IC50 is 3800 nM.

**Q.** What about the IC50 (CDK2/Cyclin A2) of the same molecule?
**A.** The IC50 was 26000 nM.

**Q.** And the Ki (CDK2/Cyclin A2)?
**A.** The Ki was 13000 nM.

**Q.** For `CCOc1cc(-c2nnc(CCN(C)C)n2C)ccc1Nc1ncc2cc(C)nc(NCC(C)(C)C)c2n1`, which logP [1] is on record?
**A.** The logP was 4.75.

**Q.** What about the CLH [4] of the same molecule?
**A.** The CLH was 23 µL/min/mg.

**Q.** What about the CLH [5] of the same molecule?
**A.** Its CLH is 27.7 µL/min/mg.

**Q.** What about the solubility [6] of the same molecule?
**A.** The solubility was 77.6 µM (≈ 40.2 µg/mL).

**Q.** What about the IC50 [2] of the same molecule?
**A.** Its IC50 is 12 nM.

**Q.** What about the Ki [2] of the same molecule?
**A.** Its Ki is 0.12 nM.

**Q.** And the IC50 [3]?
**A.** The IC50 was 230 nM.

**Q.** What about the IC50 (CDK2/Cyclin A2) of the same molecule?
**A.** The IC50 was 360 nM.

**Q.** What about the Ki (CDK2/Cyclin A2) of the same molecule?
**A.** Its Ki is 180 nM.

**Q.** With `CCOc1cc(-c2nnc3n2CCC3)ccc1Nc1ncc2cc(C)nc(NCC(C)(C)C)c2n1` as the molecule, how does the logP [1] read?
**A.** Its logP is 4.75.

**Q.** What about the CLH [4] of the same molecule?
**A.** The CLH was 18.6 µL/min/mg.

**Q.** What about the CLH [5] of the same molecule?
**A.** The CLH was 36.4 µL/min/mg.

**Q.** What about the IC50 [2] of the same molecule?
**A.** Its IC50 is 38 nM.

**Q.** What about the Ki [2] of the same molecule?
**A.** Its Ki is 0.38 nM.

**Q.** What about the IC50 [3] of the same molecule?
**A.** Its IC50 is 250 nM.

**Q.** What about the IC50 (CDK2/Cyclin A2) of the same molecule?
**A.** The IC50 was > 10000 nM.

**Q.** And the Ki (CDK2/Cyclin A2)?
**A.** Its Ki is > 5000 nM.

**Q.** With `COc1cc(-c2cn(C)nc2C)ccc1Nc1ncc2ccnc(NCC(C)(C)C)c2n1` as the molecule, how does the logP [1] read?
**A.** The logP was 4.56.

**Q.** And the IC50 [2]?
**A.** The IC50 was 2500 nM.

**Q.** And the Ki [2]?
**A.** The Ki was 24 nM.

**Q.** What about the IC50 [3] of the same molecule?
**A.** The IC50 was 230 nM.

**Q.** What about the IC50 (CDK2/Cyclin A2) of the same molecule?
**A.** The IC50 was 2800 nM.

**Q.** And the Ki (CDK2/Cyclin A2)?
**A.** The Ki was 1400 nM.

**Q.** Which results are given for `CCOc1cc(-c2nncn2C)ccc1Nc1ncc2cc(C)nc(N3CCCC3)c2n1`?
**A.** logP [1]: 3.58; IC50 [2]: 83 nM; Ki [2]: 0.82 nM; IC50 [3]: 370 nM; IC50 (CDK2/Cyclin A2): 1100 nM; Ki (CDK2/Cyclin A2): 550 nM

**Q.** With `CCOc1cc(-c2nnc(C)n2C)ccc1Nc1ncc2cc(C)nc(NCC(C)(C)C)c2n1` as the molecule, how does the logP [1] read?
**A.** Its logP is 4.49.

**Q.** And the CLH [4]?
**A.** Its CLH is 20.4 µL/min/mg.

**Q.** What about the CLH [5] of the same molecule?
**A.** Its CLH is 32.9 µL/min/mg.

**Q.** What about the solubility [6] of the same molecule?
**A.** Its solubility is 1.8 µM (≈ 0.829 µg/mL).

**Q.** What about the IC50 [2] of the same molecule?
**A.** Its IC50 is 12 nM.

**Q.** And the Ki [2]?
**A.** The Ki was 0.12 nM.

**Q.** What about the IC50 [3] of the same molecule?
**A.** The IC50 was 33 nM.

**Q.** And the IC50 (CDK2/Cyclin A2)?
**A.** Its IC50 is 940 nM.

**Q.** And the Ki (CDK2/Cyclin A2)?
**A.** Its Ki is 470 nM.

**Q.** Which logP [1] does the source give for `CCOc1cc(-c2nncn2C)ccc1Nc1ncc2cc(C)nc(N3CC(C)(C#N)C3)c2n1` here?
**A.** The logP was 3.25.

**Q.** What about the CLH [4] of the same molecule?
**A.** The CLH was 5.6 µL/min/mg.

**Q.** What about the CLH [5] of the same molecule?
**A.** The CLH was 24.7 µL/min/mg.

**Q.** What about the solubility [6] of the same molecule?
**A.** The solubility was 6.8 µM (≈ 3.1 µg/mL).

**Q.** What about the IC50 [2] of the same molecule?
**A.** Its IC50 is 20 nM.

**Q.** And the Ki [2]?
**A.** The Ki was 0.2 nM.

**Q.** And the IC50 [3]?
**A.** Its IC50 is 110 nM.

**Q.** What about the IC50 (CDK2/Cyclin A2) of the same molecule?
**A.** The IC50 was 2700 nM.

**Q.** What about the Ki (CDK2/Cyclin A2) of the same molecule?
**A.** Its Ki is 1400 nM.

**Q.** With `COc1cc(-c2nnc3n2CCC3)ccc1Nc1ncc2cc(C)nc(NCC(C)(C)C)c2n1` as the molecule, how does the logP [1] read?
**A.** The logP was 4.4.

**Q.** And the CLH [4]?
**A.** Its CLH is 28.8 µL/min/mg.

**Q.** And the CLH [5]?
**A.** The CLH was 28.8 µL/min/mg.

**Q.** What about the solubility [6] of the same molecule?
**A.** The solubility was 1.7 µM (≈ 0.78 µg/mL).

**Q.** And the IC50 [2]?
**A.** Its IC50 is 19 nM.

**Q.** And the Ki [2]?
**A.** The Ki was 0.19 nM.

**Q.** And the IC50 [3]?
**A.** Its IC50 is 240 nM.

**Q.** What about the IC50 (CDK2/Cyclin A2) of the same molecule?
**A.** Its IC50 is 250 nM.

**Q.** And the Ki (CDK2/Cyclin A2)?
**A.** The Ki was 130 nM.

**Q.** Which results are given for `COc1cc(-c2cnc(C)n2C)ccc1Nc1ncc2ccnc(NCC(C)(C)C)c2n1`?
**A.** logP [1]: 4.27; CLH [5]: 92.5 µL/min/mg; IC50 [2]: 8.5 nM; Ki [2]: 0.084 nM; IC50 [3]: 44 nM; IC50 (CDK2/Cyclin A2): 86 nM; Ki (CDK2/Cyclin A2): 43 nM

**Q.** For `COc1cc(-c2cnn(C)c2)ccc1Nc1ncc2ccnc(NCC(C)(C)C)c2n1`, which logP [1] is on record?
**A.** The logP was 4.27.

**Q.** For `COc1cc(-c2cnc(C)n2C)ccc1Nc1ncc2cc(C)nc(NCC(C)(C)C)c2n1`, which logP [1] is on record?
**A.** Its logP is 4.55.

**Q.** What about the CLH [4] of the same molecule?
**A.** The CLH was 28.2 µL/min/mg.

**Q.** And the CLH [5]?
**A.** Its CLH is 34.5 µL/min/mg.

**Q.** And the IC50 [2]?
**A.** Its IC50 is 9.5 nM.

**Q.** What about the Ki [2] of the same molecule?
**A.** Its Ki is 0.094 nM.

**Q.** And the IC50 [3]?
**A.** The IC50 was 170 nM.

**Q.** What about the IC50 (CDK2/Cyclin A2) of the same molecule?
**A.** The IC50 was 1400 nM.

**Q.** And the Ki (CDK2/Cyclin A2)?
**A.** Its Ki is 720 nM.

**Q.** With `COc1cc(-c2cnn(C)c2C)ccc1Nc1ncc2ccnc(NCC(C)(C)C)c2n1` as the molecule, how does the logP [1] read?
**A.** The logP was 4.42.

**Q.** What about the IC50 [2] of the same molecule?
**A.** Its IC50 is 79 nM.

**Q.** And the Ki [2]?
**A.** Its Ki is 0.78 nM.

**Q.** What about the IC50 [3] of the same molecule?
**A.** The IC50 was 95 nM.

**Q.** What about the IC50 (CDK2/Cyclin A2) of the same molecule?
**A.** The IC50 was 3000 nM.

**Q.** What about the Ki (CDK2/Cyclin A2) of the same molecule?
**A.** Its Ki is 1500 nM.
